We go through ten molecules from PMC3107544 (Biochemistry, 2010).

Assay [1] deals with T1, 5-HT2A receptor (Rattus norvegicus, UniProt P14842). In kind it is cell-based. The following applies: DOI 1μM, infected RSK2+/+ cortical neurons.
The subject of assay [2] is 5-HT2A receptor. The class given is cell-based, rat. Particulars: uninfected cortical neurons; DOI 1μM.
The target of assay [3] is T1, 5-HT2A receptor. The assay is described as follows: cell-based. The following applies: for EC50: pEC50 ± SEM.
The target in assay [4] is P2Y purinergic receptor. In kind it is cell-based, RSK2+/+ mouse embryonic fibroblasts.
In assay [5] the target is P2Y purinergic receptor. The class given is cell-based, RSK2+/+ mouse embryonic fibroblasts. The source holds these as a separate data set.
Assay [6] concerns the target P2Y purinergic receptor. In kind it is cell-based, RSK2−/− mouse embryonic fibroblasts.
Assay [7] concerns the target P2Y purinergic receptor. The class given is cell-based, RSK2+/+ mouse embryonic fibroblasts. The source holds these as a separate data set.
Assay [8] concerns the target P2Y purinergic receptor. In kind it is cell-based, RSK2−/− mouse embryonic fibroblasts. This is another data set of the same source.
Assay [9] concerns the target P2Y purinergic receptor. In kind it is cell-based, RSK2−/− mouse embryonic fibroblasts. The source holds these as a separate data set.
The test system of assay [10] is P2Y purinergic receptor. The assay is described as follows: FLIPR Tetra P2Y-mediated Ca^2+ responses in MEFs. The class given is cell-based, mouse. Particulars: for EC50: read-out: potency (EC50).
Assay [11] concerns the target 5-HT2A receptor (Mus musculus, UniProt P35363). Particulars: RSK2+/+ mVSMCs; 100nM.
Assay [12] has as its system RSK2. Briefly: Immunoprecipitation and immunoblot of RSK2 activation. In kind it is cell-based, mouse. The following applies: for maximal activation of RSK2 (sum pixel intensity normalized to total RSK2): RSK2+/+ MEFs, 5 min, EGF 100ng/mL or IGF-1 10nM.
Assay [13] relates to 5-HT2A-mediated Ca^2+ responses. The assay is described as follows: Growth factor attenuation of 5-HT2A-mediated Ca^2+ responses in MEFs. The class given is cell-based, mouse.
Assay [14] addresses IGF-1 R (Mus musculus, UniProt Q60751). The assay is described as follows: Immunoblot of IGF-1 R phosphorylation. The class given is cell-based. The following applies: RSK2+/+ MEFs; 10 nM.
Assay [15] has as its system 5-HT2A-mediated Ca^2+ responses. Briefly: Growth factor attenuation of 5-HT2A-mediated Ca^2+ responses in mVSMCs. The class given is cell-based, mouse. The following applies: saturating 5-HT 10μM, 60 min treatment.
[16] abbreviates: RSK2+/+ MEFs, EGF 100ng/mL 0 min (untreated).
The mark [17] stands for this setting: RSK2+/+ MEFs, EGF 100ng/mL 60 min.
Setting [18] is: RSK2−/− MEFs, EGF 100ng/mL 0 min (untreated).
[19] abbreviates: RSK2−/− MEFs, EGF 100ng/mL 60 min.

Where two headings read alike, the source gives them in different places. Marks after values point to notes of the source that are not given here.

Chain of 5-HT2A receptor (Mus musculus, UniProt P35363) (P35363 whole entry): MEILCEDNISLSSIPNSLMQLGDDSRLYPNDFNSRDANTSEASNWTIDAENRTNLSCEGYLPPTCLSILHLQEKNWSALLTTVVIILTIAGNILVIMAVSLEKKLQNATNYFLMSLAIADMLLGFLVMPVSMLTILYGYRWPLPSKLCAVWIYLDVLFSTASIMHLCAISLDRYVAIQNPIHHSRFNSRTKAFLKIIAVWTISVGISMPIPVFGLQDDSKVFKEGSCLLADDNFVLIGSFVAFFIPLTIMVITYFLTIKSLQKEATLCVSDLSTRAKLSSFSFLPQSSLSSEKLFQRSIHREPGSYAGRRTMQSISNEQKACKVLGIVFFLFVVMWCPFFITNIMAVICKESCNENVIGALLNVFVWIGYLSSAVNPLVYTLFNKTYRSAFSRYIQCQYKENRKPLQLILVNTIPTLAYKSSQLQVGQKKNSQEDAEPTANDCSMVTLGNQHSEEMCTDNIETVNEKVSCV
Chain of IGF-1 R (Q60751 31-737 limits assumed): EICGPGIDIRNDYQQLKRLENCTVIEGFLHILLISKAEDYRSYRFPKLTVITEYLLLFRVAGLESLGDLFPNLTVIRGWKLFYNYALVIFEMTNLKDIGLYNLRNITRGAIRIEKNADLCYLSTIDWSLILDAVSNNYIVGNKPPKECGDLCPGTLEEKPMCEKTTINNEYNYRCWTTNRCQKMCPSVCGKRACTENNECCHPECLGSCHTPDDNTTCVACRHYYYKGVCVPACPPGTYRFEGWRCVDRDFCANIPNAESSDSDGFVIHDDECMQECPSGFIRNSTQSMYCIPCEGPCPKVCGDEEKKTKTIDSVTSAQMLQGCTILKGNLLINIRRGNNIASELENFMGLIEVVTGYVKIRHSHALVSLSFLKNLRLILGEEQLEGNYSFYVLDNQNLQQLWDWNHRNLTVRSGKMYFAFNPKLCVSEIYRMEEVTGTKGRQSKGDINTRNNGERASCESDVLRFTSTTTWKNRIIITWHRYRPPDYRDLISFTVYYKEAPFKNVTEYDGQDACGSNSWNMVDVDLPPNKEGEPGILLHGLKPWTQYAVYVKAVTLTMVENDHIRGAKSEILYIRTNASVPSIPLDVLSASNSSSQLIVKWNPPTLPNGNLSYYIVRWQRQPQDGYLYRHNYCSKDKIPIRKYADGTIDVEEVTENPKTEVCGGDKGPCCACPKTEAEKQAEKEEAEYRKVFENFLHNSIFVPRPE
Chain of IGF-1 R (Q60751 742-1373 limits assumed): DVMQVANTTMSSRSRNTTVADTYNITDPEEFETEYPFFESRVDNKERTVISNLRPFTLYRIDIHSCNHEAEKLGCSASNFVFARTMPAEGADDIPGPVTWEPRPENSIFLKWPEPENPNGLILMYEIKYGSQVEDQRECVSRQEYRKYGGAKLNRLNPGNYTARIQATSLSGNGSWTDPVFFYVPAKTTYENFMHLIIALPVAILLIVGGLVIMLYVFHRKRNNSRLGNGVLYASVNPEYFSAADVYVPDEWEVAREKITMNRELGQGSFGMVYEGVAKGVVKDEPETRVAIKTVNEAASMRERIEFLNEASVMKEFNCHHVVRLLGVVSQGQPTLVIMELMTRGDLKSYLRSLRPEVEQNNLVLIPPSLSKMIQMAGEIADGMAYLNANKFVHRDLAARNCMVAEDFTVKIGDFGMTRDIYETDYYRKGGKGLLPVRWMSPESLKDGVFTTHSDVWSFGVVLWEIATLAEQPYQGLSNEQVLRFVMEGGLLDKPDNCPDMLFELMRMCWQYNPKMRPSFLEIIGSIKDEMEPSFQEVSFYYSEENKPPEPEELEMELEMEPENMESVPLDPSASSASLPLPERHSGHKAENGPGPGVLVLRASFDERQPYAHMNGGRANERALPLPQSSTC

For `COc1cc(CC(C)N)c(OC)cc1I.Cl` (racemic) [DOI, (±)-2,5-dimethoxy-4-iodoamphetamine hydrochloride], the results for the Area under curve in assay [1] (EGF 100ng/mL 60 min), in [1] (NRG-1 100ng/mL) and in [1] (RTK ligand None) were 20.9 +/− 1.2 ^b, 28.6 +/− 1.7 ^b and 33.7 +/− 1.3, respectively. For the same molecule, the “Ca^2+ response in uninfected neurons” value in assay [2] is on record as “unresponsive”.
For `COc1ccc2[nH]cc(CCN(C)C)c2c1` [5-methoxy DMT, 5-methoxy-N,N-dimethyltryptamine], the 50% effective concentration (EC50) is 25.7 nM in assay [3] (setting [16]), 67.6 nM in assay [3] (setting [17]), 89.1 nM in [3] (setting [18]) and 89.1 nM in assay [3] (setting [19]). Also, the Emax in assay [3] (read-out: Emax± SEM, %, RSK2+/+ MEFs, EGF 100ng/mL 0 min (untreated)) was 86.7%; in [3] (read-out: Emax± SEM, %, RSK2+/+ MEFs, EGF 100ng/mL 60 min), 79.6%; in assay [3] (read-out: Emax± SEM, %, RSK2−/− MEFs, EGF 100ng/mL 0 min (untreated)) it was 80.4%; in [3] (read-out: Emax± SEM, %, RSK2−/− MEFs, EGF 100ng/mL 60 min) it was 79.1%.
Consider `Nc1ncnc2c1ncn2[C@@H]1O[C@H](COP(=O)(O)OP(=O)(O)OP(=O)(O)O)[C@@H](O)[C@H]1O` [ATP, adenosine 5'-triphosphate], for which the “RSK2+/+ MEFs, 0 min, pEC50 ± SEM” value in assay [4] is on record as 5.16 +/− 0.05. For the same molecule, in assay [5], the “RSK2+/+ MEFs, 60 min, pEC50 ± SEM” value is 4.88 +/− 0.09 ^d. Moreover, in assay [6], the “RSK2−/− MEFs, 60 min, pEC50 ± SEM” value is reported as 5.30 +/− 0.09. In addition, in assay [7], the “RSK2+/+ MEFs, 30 min, pEC50 ± SEM” value is given as 4.95 +/− 0.06 ^d. The “RSK2−/− MEFs, 0 min, pEC50 ± SEM” value in assay [8] is 5.37 +/− 0.09. Besides, in assay [9], the “RSK2−/− MEFs, 30 min, pEC50 ± SEM” value is recorded as 5.34 +/− 0.09.
Regarding `Nc1ncnc2c1ncn2[C@@H]1O[C@H](COP(=O)(O)OP(=O)(O)OP(=O)(O)O)[C@@H](O)[C@H]1O` [ATP], the “Emax± SEM, %” value in assay [10] (setting [16]) is 99.7 +/− 2.0%; in [10] (RSK2+/+ MEFs, EGF 100ng/mL 30 min), 88.4 +/− 2.5 ^d %; in assay [10] (setting [17]), 82.5 +/− 3.2 ^d %; in assay [10] (setting [18]), 98.6 +/− 3.3%; in assay [10] (RSK2−/− MEFs, EGF 100ng/mL 30 min), 93.4 +/− 3.2%; in [10] (setting [19]), 100 +/− 3.5%. The EC50 amounted to 13000 nM in assay [10] (RSK2+/+ MEFs, 60 min EGF treatment) and 7000 nM in assay [10] (RSK2+/+ MEFs, untreated).
Take `COc1cccc([C@H](O)C2CCN(CCc3ccc(F)cc3)CC2)c1OC` [MDL100907]: the “block of 5-HT-elicited Ca^2+ responses” value in assay [11] is on record as “blocked”.
Take “EGF: human epidermal growth factor, canonical EGFR agonist”: the “maximal activation of RSK2 (sum pixel intensity normalized to total RSK2)” value in [12] is recorded as 1.25 × 10^6 +/− 0.25 × 10^6. Besides, the “IC50 for attenuation of 5-HT2A-mediated Ca^2+ responses” value in assay [13] (RSK2+/+ MEFs) worked out at 1.3 ng/mL. For the same molecule, in assay [13] (RSK2+/+ MEFs, 10nM 5-HT, 100ng/mL EGF 1hr, parallel control of IGF-1 experiments), the “peak Ca^2+ release” value is 80.7 +/− 2.3%.
For the molecule “IGF-1: insulin-like growth factor 1, activates the IGF-1 R”, the “maximal activation of RSK2 (sum pixel intensity normalized to total RSK2)” value in assay [12] is 0.546 × 10^6 +/− 0.107 × 10^6. Further, the “activation of IGF-1 R (Tyr(P)1158/1162/1163)” value in assay [14] is given as “activated”.
Take “TGF-α: transforming growth factor-alpha, selective and potent EGFR agonist”: the “IC50 for attenuation of 5-HT2A-mediated Ca^2+ responses” value in assay [13] (RSK2+/+ MEFs) is 4.1 ng/mL.
With “insulin: insulin, tested for attenuation of 5-HT2A receptor signaling in MEFs”, in assay [12] (MEFs, data not shown), the “activation of RSK2” value is listed as “modest activation”. For the same molecule, the “effect on 5-HT2A receptor signaling” value in [13] (MEFs, data not shown) is listed as “no effect”.

B1: PDGF-BB: human platelet-derived growth factor BB, PDGFR ligand (protein, UniProt P01127 82-190, looked up)
Platelet-derived growth …: SLGSLTIAEPAMIAECKTRTEVFEISRRLIDRTNANFLVWPPCVEVQRCSGCCNNRNVQCRPTQVQLRPVQVRKIEIVRKKPIFKKATVTLEDHLACKCETVAAARPVT
As for B1, the entries for the “peak Ca^2+ release” value in assay [15] (RSK2+/+ cells) and in assay [15] (RSK2−/− cells) were 67.0 +/− 8.5% and 77.9 +/− 7.6%, respectively.
